Legend:
A549 cells = assay: A549 cell growth inhibition assay (alamarBlue); assay type: cell-based; conditions: Homo sapiens, 72 hours treatment, alamarBlue fluorescence
Method: Example compounds 1a, 2, 4 and 6 were assayed in an A549 cell growth inhibition assay as follows. A549 cells were cultured in DMEM medium with supplement of 10% FBS and 1% Pen-strep. Assay conditions: to perform the proliferation assay, A549 cells were seeded at 5000 cells/90 μl growth medium/well on 96-well black clear-bottom tissue culture plate. Cells were incubated at 37° C. and 5% CO2 overnight to allow them to recover and reattach. Next day cells were treated with tested compounds for 72 hours. After treatment, cell proliferation was measured by Fluorescent quantitation of alamarBlue reagent. The alamarBlue assay incorporates a fluorometric/colorimetric growth indicator based on detection of metabolic activity. Specifically, resazurin, the active ingredient of alamarBlue reagent, is blue in color and virtually non-fluorescent. Upon entering cells, resazurin is reduced to resorufin, a compound that is red in color and highly fluorescent. Continued cell growth maintains a reduced environment, therefore increasing the overall fluorescence and color of the media surrounding cells. Our experiment has shown that the fluorescence intensity of alamarBlue reagent was directly proportional to cell number. To perform the alamarBlue assay, 10 μl of alamarBlue reagent was added to each well and the plate was incubated at 37° C. for an additional 1-4 hours. Fluorescence intensity was measured at an excitation of 530 nm and an emission of 590 nm using a BioTek Synergy™ 2 microplate reader.
Data analysis. Cell proliferation assays in triplicate were performed at each concentration. The fluorescent intensity data were analyzed using the computer software, Graphpad Prism. In the absence of the compound, the fluorescent intensity (Ft) in each data set was defined as 100%. In the absence of cells, the fluorescent intensity (Fb) in each data set was defined as 0%. The percent cell in the presence of each compound was calculated according to the following equation: % cell=(F-Fb)/(Ft-Fb), where F=the fluorescent intensity in the presence of the compound, Fb=the fluorescent intensity in the absence of cells, and Ft=the fluorescent intensity in the absence of the compound. The values of % cell versus a series of compound concentrations were then plotted using non-linear regression analysis of Sigmoidal dose-response curve generated with the equation Y=B+(T-B)/1+10^((LogEC50-X)×Hill Slope), where Y=percent cell, B=minimum percent cell, T=maximum percent cell, X=logarithm of compound and Hill Slope=slope factor or Hill coefficient. The IC50 value was determined by the concentration causing a half-maximal percent activity.

A172 glioblastoma cells = assay: A172 cell growth inhibition assay (CellTiter-Glo); assay type: cell-based; conditions: Homo sapiens, A 172, 48-72 hours treatment, CellTiter-Glo luminescence, test range 1-30 μM
Method: Compounds were also assayed in an A172 cell growth inhibition assay as follows. A172 glioblastoma cells were cultured in Dulbecco's modified Eagle's medium (DMEM) supplemented with 10% fetal bovine serum and 1% Penicillin-streptomycin. Incubation was performed at 37° C. and 5% CO2.
A172 cells were seeded at 3000-3500 cells/90 ul growth medium per well on 96-well tissue culture plates. Cells were incubated overnight to allow them to recover and reattach. Next day cells were treated with tested compounds and incubated for 48-72 hours.
Cell Proliferation assays in triplicate were performed at each concentration. Compounds test range was 1-30 μM (0, 5, 10, 15, 20, 25, and 30). The compounds were dissolved in DMSO. A series of dilutions were made in 1% DMSO in growth medium so that the final concentration of DMSO is 0.1% in all of treatments.
After treatment, cells were allowed to equilibrate at room temperature for ½ to one hour. Cell proliferation was measured by Luminescence quantification using Promega CellTiter-Glo Luminescent Cell Viability Assay. To perform the assay, 100 μl of Celltiter-Glo substrate was added to each well, plates were shake for 2 minutes and allowed to equilibrate for 10 minutes at room temperature. Luminescence intensity was measured using the Spectramax i3x plate reader.
The Luminescence intensity data were analyzed using the computer software Graphpad Prism. In the absence of the compound, the luminescence intensity (Lr) in each data set was defined as 100% cell viability. The percent cell in the presence of each compound was calculated according to the following equation: […], where L=the luminescence intensity in the presence of the compound.
The values of % cell versus a series of compound concentrations (0, 5, 10, 15, 20, 25, and 30 μM) were then plotted using nonlinear regression analysis of Sigmoidal dose-response curve. IC50 values were determined by the concentration causing a half-maximal percent activity.

Compound	IC50 (A549 cells) [µM]	IC50 (A172 glioblastoma cells) [µM]
COc1cccc2c1C(=O)c1c(O)c3c(c(O)c1C2=O)C[C@@](O)(C(=O)CO)C[C@@H]3O[C@H]1C[C@H](N)[C@H](O)[C@H](C)O1 [Doxorubicin, reference compound]	0.34	
O=S(=O)(Nc1ccc(OC(F)(F)F)cc1)N1CCCC(C(c2ccc(F)cc2)c2ccc(F)cc2)C1 (centres unmarked) [Example 1a, 3-(bis(4-fluorophenyl)methyl)-N-(4-(trifluoromethoxy)phenyl)piperidine-1-sulfonamide]	8.27	12.1
O=S(=O)(Nc1ccccc1)N1CCCC(C(c2ccc(F)cc2)c2ccc(F)cc2)C1 (centres unmarked) [Example 2, 3-(bis(4-fluorophenyl)methyl)-N-phenylpiperidine-1-sulfonamide]	22.9	23
O=S(=O)(Nc1ccc(C(F)(F)F)cc1)N1CCCC(C(c2ccc(F)cc2)c2ccc(F)cc2)C1 (centres unmarked) [Example 4, 3-(bis(4-fluorophenyl)methyl)-N-(4-(trifluoromethyl)phenyl)piperidine-1-sulfonamide]	9.61	17.1
O=S(=O)(Nc1ccc(Cl)cc1)N1CCCC(C(c2ccc(F)cc2)c2ccc(F)cc2)C1 (centres unmarked) [Example 6, 3-(bis(4-fluorophenyl)methyl)-N-(4-chlorophenyl)piperidine-1-sulfonamide]	12.8	
O=S(=O)(Nc1ccc(OC(F)(F)F)cc1)N1CCOC(C(c2ccc(F)cc2)c2ccc(F)cc2)C1 (centres unmarked) [Example 19, 2-(bis(4-fluorophenyl)methyl)-N-(4-(trifluoromethoxy)phenyl)morpholine-4-sulfonamide]		18.2
O=S(=O)(Nc1ccc(C(F)(F)F)cc1)N1CCOC(C(c2ccc(F)cc2)c2ccc(F)cc2)C1 (centres unmarked) [Example 22]		26
O=S(=O)(Nc1ccc(Cl)cc1)N1CCOC(C(c2ccc(F)cc2)c2ccc(F)cc2)C1 (centres unmarked) [Example 25]		19.4
O=S(=O)(Nc1cccc(Cl)c1)N1CCOC(C(c2ccc(F)cc2)c2ccc(F)cc2)C1 (centres unmarked) [Example 26]		28.2
O=S(=O)(Nc1ccc(OC(F)(F)F)cc1)N1CCCC(C2c3ccccc3CCc3ccccc32)C1 (centres unmarked) [Example 37]		11
O=S(=O)(Nc1ccc(C(F)(F)F)cc1)N1CCCC(C2c3ccccc3CCc3ccccc32)C1 (centres unmarked) [Example 40]		15.8
O=[N+]([O-])c1ccc(NS(=O)(=O)N2CCCC(C3c4ccccc4CCc4ccccc43)C2)cc1 (centres unmarked) [Example 42]		51
O=S(=O)(Nc1ccc(OC(F)(F)F)cc1)N1CCCC(C2c3ccc(F)cc3CCc3cc(F)ccc32)C1 (centres unmarked) [Example 71]		13
O=S(=O)(Nc1ccc(Cl)c(Cl)c1)N1CCOC(C(c2ccc(F)cc2)c2ccc(F)cc2)C1 (centres unmarked) [Example 93]		45
O=S(=O)(Nc1cc(Cl)cc(Cl)c1)N1CCOC(C(c2ccc(F)cc2)c2ccc(F)cc2)C1 (centres unmarked) [Example 94]		23.2
O=S(=O)(NCc1ccc(F)cc1)N1CCCC(C2c3ccccc3CCc3ccccc32)C1 (centres unmarked) [Example 96]		16.1

Compound	IC50 (A549 cells) [µM]	IC50 (A172 glioblastoma cells) [µM]
O=S(=O)(NCc1ccc(F)cc1)N1CCOC(C(c2ccc(F)cc2)c2ccc(F)cc2)C1 (centres unmarked) [Example 97]		27.2
O=S(=O)(NCc1ccc(C(F)(F)F)cc1)N1CCCC(C2c3ccccc3CCc3ccccc32)C1 (centres unmarked) [Example 98]		10.4
O=S(=O)(Nc1ncc(C(F)(F)F)cn1)N1CCCC(C2c3ccccc3CCc3ccccc32)C1 (centres unmarked) [Example 99]		25.3
O=S(=O)(Nc1ccc(Cl)c(Cl)c1)N1CCCC(C(c2ccc(F)cc2)c2ccc(F)cc2)C1 (centres unmarked) [Example 100]		16.2
O=S(=O)(Nc1cccc(C(F)(F)F)c1)N1CCCC(C(c2ccc(F)cc2)c2ccc(F)cc2)C1 (centres unmarked) [Example 101]		22.1
O=S(=O)(Nc1cccc(C(F)(F)F)c1)N1CCOC(C(c2ccc(F)cc2)c2ccc(F)cc2)C1 (centres unmarked) [Example 102]		20.6
CC(C)(C)OC(=O)Nc1ccc(NS(=O)(=O)N2CCCC(C(c3ccc(F)cc3)c3ccc(F)cc3)C2)cc1 (centres unmarked) [Example 103]		10.3
O=S(=O)(Nc1ccc(OC(F)(F)F)cc1)N1CCCC(=C(c2ccc(F)cc2)c2ccc(F)cc2)C1 [Example 104]		14.8
O=S(=O)(Nc1ccc(OC(F)(F)F)cc1)N1CCCC(=C(c2ccccc2)c2ccccc2)C1 [Example 105]		20.3
O=S(=O)(Nc1ccc2c(c1)OC(F)(F)O2)N1CCCC(C2c3ccccc3CCc3ccccc32)C1 (centres unmarked) [Example 106]		12.8
O=S(=O)(Nc1ccc(Cl)cc1)N1CCCC(=C(c2ccc(F)cc2)c2ccc(F)cc2)C1 [Example 108]		16.1
O=S(=O)(Nc1ccc(C(F)(F)F)cc1)N1CCCC(=C(c2ccc(F)cc2)c2ccc(F)cc2)C1 [Example 109]		19.2
O=S(=O)(Nc1ccccc1)N1CCCC(=C(c2ccc(F)cc2)c2ccc(F)cc2)C1 [Example 110]		25
O=S(=O)(Nc1cccc(C(F)(F)F)c1)N1CCCC(=C(c2ccc(F)cc2)c2ccc(F)cc2)C1 [Example 111]		30
O=S(=O)(Nc1cccc(OC(F)(F)F)c1)N1CCCC(=C(c2ccc(F)cc2)c2ccc(F)cc2)C1 [Example 112]		24
O=S(=O)(Nc1cccc(OC(F)(F)F)c1)N1CCCC(C2c3ccccc3CCc3ccccc32)C1 (centres unmarked) [Example 113]		10.8

Reference: US20250382270A1, “3-DIARYLMETHYLENES AND USES THEREOF” (Atux Iskay LLC, priority 2020, published 2025)
